Consider three molecules from article PMC4503349 (PLoS ONE, 2015).

Structures can show the parent of a compound that is named as a salt.

For test [1], the target named is T1, calcineurin (CaN; CnAα catalytic subunit) (Homo sapiens, UniProt Q08209).
T1 construct: gene PPP3CA; recombinant human CaN, comprising CnAα and CnB subunits; with calcineurin B (CnB); calmodulin
Nature of the test: malachite green phosphatase assay with RII phosphopeptide, absorbance dose-response, calmodulin present. The class given is biochemical.

In test [2] the target is T1, calcineurin (CaN; CnAα catalytic subunit). Nature of the test: malachite green phosphatase assay with RII phosphopeptide. The class given is biochemical.

On to `CN1CCN(CCCN2c3ccccc3Sc3ccc(C(F)(F)F)cc32)CC1` [LDN-0013906, tri-fluoperazine dihydrochloride], for which the IC50 in test [1] was 4.5 µM.
As for `O=C(O)[C@@H]1[C@H](C(=O)O)[C@H]2CC[C@@H]1O2` [endothall], the IC50 in test [2] was 12.6 µM.
For `Fc1ccc(C(c2ccc(F)cc2)N2CCN(C/C=C/c3ccccc3)CC2)cc1` [LDN-0013905, flunarizine hydrochloride], in test [1] (read-out: IC50), the IC50 stood at 106 µM.

Usually IC50 stands for the concentration at which inhibition is half-maximal.
